In article PMC11396751, “Design, Synthesis, and Anticancer Activity of Novel Enmein-Type Diterpenoid Derivatives Targeting the PI3K/Akt/mTOR Signaling Pathway” (Molecules, 2024):

Legend:
A549 cells = experiment: ROS content, H2DCFDA staining; type: cell-based, human; conditions: A549, 2, 4 and 8 µM, 48 h, flow cytometry
Description: Reactive oxygen species (ROS) are secondary metabolites of cells and are closely linked to the regulation of multiple biological activities. Elevated intracellular ROS levels are thought to be a hallmark of apoptosis. To determine whether 7h could affect the ROS content in cancer cells, the A549 cells were treated with different concentrations (0, 2, 4, and 8 µM) of 7h and then stained with H2DCFDA.
Flow cytometry was used to detect changes in intracellular reactive oxygen species content, and the results are shown in Figure 5b,c.
A549 cells were inoculated into 24-well plates and attached via cell adhesion. Then, gradient concentrations (0, 2, 4, and 8 µM) of 7h were added and the cells were co-incubated for 48 h. The cells were cleaned with ice-cold PBS, stained with H2DCFDA, mixed, and incubated in cells for 20 min in darkness at 25 °C. The apoptosis morphology of the cells in each group was observed and photographed using a laser confocal microscope (LSM710, Zeiss, Oberkochen, Germany).
A549 cells were inoculated into 6-well plates and attached via cell adhesion. Then, gradient concentrations (0, 2, 4, and 8 µM) of 7h were added and the cells were co-incubated for 48 h. […] The experimental data were gathered using flow cytometry (FACS Calibur, BD, Milpitas, CA, USA) and analyzed using Flow Jo software. […]

PI3K/Akt/mTOR pathway = experiment: Western blot analysis in A549 cells; type: cell-based, human; conditions: A549, 2, 4 and 8 µM, 48 h
Description: The PI3K/Akt/mTOR pathway is a critical intracellular signaling pathway during cancer development that regulates cellular processes such as proliferation, differentiation, apoptosis, and autophagy. Inhibiting the aberrant activation of the PI3K/Akt/mTOR signaling pathway is envisaged as a promising anticancer strategy. Based on KEGG analysis and researching the literature, the PI3K/Akt/mTOR signaling pathway is predicted to be one of the major pathways for 7h to exert its anticancer effects. Therefore, a western blot assay was performed to determine the expression of the main proteins, PI3K, p-PI3K, Akt, p-Akt, mTOR, and p-mTOR, to examine whether the anticancer ability of 7h against A549 cells is related to its modulation of the PI3K/Akt/mTOR pathway.
Western blot was used to determine the effect of 7h against the related protein expression in A549 cells. A549 cells were inoculated in 6-well plates and treated with a grdient concentrations (0, 2, 4, and 8 µM) of 7h for 48 h. The cells were collected, lysed in RIPA buffer, and heated at 100 °C for 10 min. The samples were processed via 10% sodium dodecyl sulfate-polyacrylamide gel electrophoresis (10% SDS-PAGE) and then transferred to a poly vinylidene difluoride (PVDE) membrane. […]

## C=C1C(=O)C23C(=O)OC45CCC(C)(C)C6C(OC(=O)CCC(=O)N7CCC(c8noc9cc(F)ccc89)CC7)OCC64C2CCC1C3O5 (single isomer, unassigned; ent-6) [Compound 7h, ent-6β,14α-Dihydroxy-(1,7–1,14)-epoxy-7,15-dioxo-6,20-hemiketal-6,7-seco-16-kaurene-6β-yl 4-(4-(6-fluorobenzo[d]isoxazol-3-yl)piperidin-1-yl)-4-oxobutanoate]
A549 cells
  intracellular ROS content: increased significantly in a dose-dependent manner
PI3K/Akt/mTOR pathway
  Akt protein phosphorylation expression: showed an effect on Akt protein phosphorylation expression
PI3K/Akt/mTOR pathway; dose-dependent, vs blank control
  expression levels of p-PI3K and p-mTOR: effectively reduce
